Test results as given in article PMC10862539, “Chelation of Mitochondrial Iron as an Antiparasitic Strategy” (ACS Infectious Diseases, 2024).
Read-outs that look alike come from different tables or passages of the source.

Key:
T. gambiense (BSF) = assay: Drug sensitivity assay, T. gambiense bloodstream form (resazurine); type: cell-based, Trypanosoma gambiense; details: Trypanosoma brucei; reference compound; T. gambiense (BSF); 72 h; read-out: control EC50
Description: (§1) All organisms were cultivated according to the conditions summarized in Table S2, which also includes strain specifications. Dose–response curves were obtained by their cultivation on 96 well plates in a 2-fold series dilution of the appropriate drug, in a total volume of 200 μL (with the exception of P. falciparum, where the total volume was 100 μL). Iron supplementation was achieved by mixing the compound with Fe-NTA in an equimolar ratio prior to setting up the experiment. Results were plotted and processed using Prism 8.0 (GraphPad Software). A two-tailed unpaired t-test was performed to assess the significance of the difference between mitoDFO with and without added iron. Selectivity was calculated as the ratio of the average EC50 value for human fibroblasts to the average EC50 value for the appropriate pathogen. All data were obtained from a minimum of three independent biological replicates.

T. brucei 427 (BSF) = assay: Drug sensitivity assay, T. brucei 427 bloodstream form (resazurine); type: cell-based, Trypanosoma brucei; details: Trypanosoma brucei
Description: as §1

T. brucei STIB (BSF) = assay: Drug sensitivity assay, T. brucei STIB bloodstream form (resazurine); type: cell-based, Trypanosoma brucei; details: Trypanosoma brucei; reference compound; T. brucei STIB (BSF); 72 h; read-out: control EC50
Description: as §1

P. falciparum = assay: Drug sensitivity assay, P. falciparum (SYBR green I); type: cell-based, Plasmodium falciparum; details: Plasmodium falciparum, 48 h, read-out: control EC50
Description: as §1

B. divergens = assay: Drug sensitivity assay, B. divergens in bovine erythrocytes (flow cytometry); type: cell-based, Babesia divergens; details: Babesia divergens, Erythrocyte; reference compound; B. divergens; 48 h; read-out: control EC50
Description: as §1

G. intestinalis = assay: Drug sensitivity assay, G. intestinalis (flow cytometry); type: cell-based; details: Giardia duodenalis; reference compound; G. intestinalis; 24 h; read-out: control EC50
Description: as §1

murine macrophage [1] = assay: Intracellular L. mexicana infection assay, macrophage population; type: cell-based, mouse; details: infected macrophages, 72 h treatment, read-out: EC50 infection assay murine macrophage
Description: (§2) Approximately 10 000 murine macrophages per well were seeded on 96 well plate, and a suspension of 60 000 L. mexicana GFP-expressing promastigotes was added to each well and left to infect the mammal cells for 72 h in a cultivation medium under the conditions described in Table S2. 2-fold dilution series starting with 100 μM of either mitoDFO, DFO, or Amphotericin B in a regular growth medium were added, and cultures were incubated for further 72 h in the same conditions. Macrophage cells were washed and resuspended in growth medium and detached by pipetting, and their concentration in each well was measured on a Guava EasyCyte 8HT flow cytometer (Luminex). The GFP signal of internalized L. mexicana amastigotes in each macrophage was detected using a 488 nm excitation laser and a 525/30 nm detector. Median fluorescence graphs were plotted, and EC50 values for both macrophages and intracellular L. mexicana were calculated using Prism 8.0 (GraphPad Software).

murine macrophage [2] = assay: Murine macrophage axenic monoculture EC50; type: cell-based, mouse; details: axenic monoculture, read-out: EC50 axenic murine macrophage
L. mexicana (amastigote) = assay: Drug sensitivity assay, axenic L. mexicana amastigote (flow cytometry); type: cell-based, Leishmania mexicana
Description: as §1

[3] = tested on: intracellular Leishmania mexicana amastigotes; assay: Intracellular L. mexicana infection assay, GFP amastigotes in macrophages; type: cell-based; details: intracellular amastigotes, 72 h treatment, read-out: EC50 infection assay Leishmania mexicana
Description: as §2

N. fowleri = assay: Drug sensitivity assay, N. fowleri (flow cytometry); type: cell-based; details: Naegleria fowleri; reference compound; N. fowleri; 72 h; read-out: control EC50
Description: as §1

C. albicans = assay: Drug sensitivity assay, C. albicans (OD600); type: cell-based, Candida albicans; details: Candida albicans; reference compound; C. albicans; 48 h; read-out: control EC50
Description: as §1

A. castellanii = assay: Drug sensitivity assay, A. castellanii (flow cytometry); type: cell-based, Acanthamoeba castellanii; details: Acanthamoeba castellanii; reference compound; A. castellanii; 96 h; read-out: control EC50
Description: as §1

C. neoformans = assay: Drug sensitivity assay, C. neoformans (OD600); type: cell-based, Cryptococcus neoformans; details: Cryptococcus neoformans; reference compound; C. neoformans; 72 h; read-out: control EC50
Description: as §1

L. major (promastigote) = assay: Drug sensitivity assay, L. major promastigote (flow cytometry); type: cell-based; details: Leishmania major; reference compound; L. major (promastigote); 120 h; read-out: control EC50
Description: as §1

## N=C(N)c1ccc(OCCCCCOc2ccc(C(=N)N)cc2)cc1 [pentamidine]
T. gambiense (BSF)
  EC50: 0.002 ± 0.0005 µM
T. brucei 427 (BSF); reference compound, T. brucei 427 (BSF), 72 h, read-out: control EC50
  EC50: 0.007 ± 0.001 µM
T. brucei STIB (BSF)
  EC50: 0.001 ± 0.0004 µM

## CCN(CC)CCCC(C)Nc1ccnc2cc(Cl)ccc12 (stereo not drawn) [chloroquine, reference compound]
P. falciparum
  EC50: 0.015 ± 0.001 µM

## O=C1C(O)=C([C@H]2CC[C@H](c3ccc(Cl)cc3)CC2)C(=O)c2ccccc21 [atovaquone, reference compound]
B. divergens
  EC50: 0.008 ± 0.001 µM

## O=C(Cn1ccnc1[N+](=O)[O-])NCc1ccccc1 [benznidazole]
G. intestinalis
  EC50: 2.6 ± 1.4 µM

## CN(C)CCOc1ccc(/C(=C(/CCCCCCCCCC[P+](c2ccccc2)(c2ccccc2)c2ccccc2)c2ccccc2)c2ccccc2)cc1 [MitoTam]
Murine macrophage [1]
  EC50: 0.26 µM
Murine macrophage [2]
  EC50: 0.39 µM
L. mexicana (amastigote); axenic monoculture, read-out: EC50 axenic Leishmania mexicana
  EC50: 0.35 µM
[3]
  EC50: ~0.1 µM

## CSc1ccc(OCc2ncc([N+](=O)[O-])n2C)cc1 [fexinidazole]
T. brucei 427 (BSF); T. brucei 427, comparison drug in text, read-out: EC50
  EC50: 4.84 µM

## C[C@@H]1[C@H](O)[C@@H](C)/C=C/C=C/C=C/C=C/C=C/C=C/C=C/[C@H](O[C@@H]2O[C@H](C)[C@@H](O)[C@H](N)[C@@H]2O)C[C@@H]2O[C@](O)(C[C@@H](O)C[C@@H](O)[C@H](O)CC[C@@H](O)C[C@@H](O)CC(=O)O[C@H]1C)C[C@H](O)[C@H]2C(=O)O [AmpB, amphotericin B, reference compound]
N. fowleri
  EC50: 0.069 ± 0.009 µM
Murine macrophage [1]; Mus musculus, Macrophage
  EC50: 29.1 ± 5.91 µM
C. albicans
  EC50: 1.5 ± 0.1 µM
A. castellanii
  EC50: 8.1 ± 1.6 µM
C. neoformans
  EC50: 0.2 ± 0.1 µM
Murine macrophage [2]; Mus musculus, Macrophage
  EC50: > 25 µM
L. mexicana (amastigote); Leishmania mexicana, axenic monoculture, read-out: EC50 axenic Leishmania mexicana
  EC50: 0.33 ± 0.08 µM
L. mexicana (amastigote); Leishmania mexicana, reference compound, L. mexicana (amastigote), 120 h, read-out: control EC50
  EC50: 0.32 ± 0.035 µM
[3]; Leishmania mexicana, Macrophage
  EC50: 3.77 ± 0.4 µM
L. major (promastigote)
  EC50: 0.024 ± 0.008 µM
